Laboratory results from ChEMBL document CHEMBL1268853, “Characterization of Acetylcholinesterase Inhibitory Constituents from Annona glabra Assisted by HPLC Microfractionation” (J Nat Prod, 2010).
pIC50: −log10 of the molar value. Counter-ions that a name gives are not always drawn.

Molecular target: Acetylcholinesterase (Electrophorus electricus, UniProt O42275)
Assay: Inhibition of electric eel AChE by Ellman's method

Chain of Acetylcholinesterase (O42275 whole entry): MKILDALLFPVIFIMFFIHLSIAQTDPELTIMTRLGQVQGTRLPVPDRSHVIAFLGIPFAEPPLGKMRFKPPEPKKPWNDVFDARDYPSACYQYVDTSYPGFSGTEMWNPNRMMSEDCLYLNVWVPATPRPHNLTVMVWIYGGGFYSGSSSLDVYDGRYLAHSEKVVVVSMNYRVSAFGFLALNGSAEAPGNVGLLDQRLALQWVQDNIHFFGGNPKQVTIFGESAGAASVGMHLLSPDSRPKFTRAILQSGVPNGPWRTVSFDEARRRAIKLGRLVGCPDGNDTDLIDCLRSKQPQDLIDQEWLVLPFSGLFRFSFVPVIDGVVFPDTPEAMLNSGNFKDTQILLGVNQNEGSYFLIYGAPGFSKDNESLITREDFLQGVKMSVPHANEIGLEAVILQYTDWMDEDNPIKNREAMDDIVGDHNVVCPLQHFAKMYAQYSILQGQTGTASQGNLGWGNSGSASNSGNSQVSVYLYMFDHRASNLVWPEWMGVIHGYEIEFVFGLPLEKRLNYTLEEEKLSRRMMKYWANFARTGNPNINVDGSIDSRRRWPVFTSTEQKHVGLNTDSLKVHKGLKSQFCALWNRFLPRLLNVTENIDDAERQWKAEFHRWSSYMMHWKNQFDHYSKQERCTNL

Row | SMILES | pIC50
1 | COc1cccc2c1C(=O)c1c(C)cc(=O)[nH]c1C2=O | 4.63
2 | COc1cc2c(cc1O)C=[N+](C)CC2 | 4.80
3 | COc1ccc(C[C@H]2c3cc(O)c(OC)cc3CCN2C)cc1O | 4.14
4 | COc1cc2c(cc1O)C[N@+]1(C)CCc3cc(OC)c(OC)cc3[C@@H]1C2 | 5.08
5 | COc1cc2c3c(c1O)-c1c(ccc(OC)c1OC)C[C@@H]3[N+](C)(C)CC2 | < 3.85
6 | COc1c(O)cc2c3c1-c1ccccc1C[C@H]3NCC2 | 3.91
7 | COc1cc2c(cc1O)C[C@H]1NCCc3cc4c(c-2c31)OCO4 | < 3.93
8 | O[C@@H]1c2ccccc2-c2c3c(cc4c2[C@H]1NCC4)OCO3 | < 3.90
9 | COc1c(O)c2c3c(c1OC)-c1cc4c(cc1C[C@@H]3NCC2)OCO4 | 4.11
10 | COc1c(O)c2c3c(c1OC)-c1ccccc1C[C@H]3NCC2 | 3.96
11 | COc1cc2c(cc1O)C=[N+]1CCc3cc(OC)c(OC)cc3[C@@H]1C2 | 3.81
12 | COc1cc2c(cc1OC)[C@@H]1Cc3ccc(O)c(OC)c3C=[N+]1CC2 | 4.51
13 | COc1cc2ccnc3c2c(c1OC)-c1cc2c(cc1C3=O)OCO2 | < 3.82
14 | COc1cc2c(cc1OC)-c1cc3ccc(O)c(OC)c3c[n+]1CC2 [DEHYDROCORYDALMINE TRIFLUOROACETATE] | 4.02
15 | COc1cc2c[n+]3c(cc2cc1O)-c1cc(OC)c(OC)cc1CC3 [DEHYDROCORYTENCHINE TRIFLUOROACETATE] | 4.01
16 | O=C1c2ccccc2-c2c3c(cc4ccnc1c24)OCO3 [LIRIODENINE] | < 3.82
17 | COc1cc2ccnc3c2c(c1OC)-c1ccccc1C3=O [LYSICAMINE] | 4.79
18 | COc1cc2c(cc1O)-c1cc3cc(OC)c(OC)cc3c[n+]1CC2 [PSEUDOCOLUMBAMINE TRIFLUOROACETATE] | 5.30
19 | COc1cc2c(cc1OC)-c1cc3cc(OC)c(OC)cc3c[n+]1CC2 [PSEUDOPALMATINE TRIFLUOROACETATE] | 5.74
